Assay results taken from US20240269139A1, “COMPOUNDS FOR TARGETED PROTEIN DEGRADATION OF KINASES” (DANA-FARBER CANCER INSTITUTE, INC., priority 2020, published 2024).
Where two headings read alike, the source gives them in different places.

How the values were obtained:
Assay type in all cases: cell-based
[1] = target: T1, protein kinases (human kinome) (Homo sapiens, UniProt Q9UIG0); settings: BAZ1B (Q9UIG0)
T1 sequence (Q9UIG0 1-1483): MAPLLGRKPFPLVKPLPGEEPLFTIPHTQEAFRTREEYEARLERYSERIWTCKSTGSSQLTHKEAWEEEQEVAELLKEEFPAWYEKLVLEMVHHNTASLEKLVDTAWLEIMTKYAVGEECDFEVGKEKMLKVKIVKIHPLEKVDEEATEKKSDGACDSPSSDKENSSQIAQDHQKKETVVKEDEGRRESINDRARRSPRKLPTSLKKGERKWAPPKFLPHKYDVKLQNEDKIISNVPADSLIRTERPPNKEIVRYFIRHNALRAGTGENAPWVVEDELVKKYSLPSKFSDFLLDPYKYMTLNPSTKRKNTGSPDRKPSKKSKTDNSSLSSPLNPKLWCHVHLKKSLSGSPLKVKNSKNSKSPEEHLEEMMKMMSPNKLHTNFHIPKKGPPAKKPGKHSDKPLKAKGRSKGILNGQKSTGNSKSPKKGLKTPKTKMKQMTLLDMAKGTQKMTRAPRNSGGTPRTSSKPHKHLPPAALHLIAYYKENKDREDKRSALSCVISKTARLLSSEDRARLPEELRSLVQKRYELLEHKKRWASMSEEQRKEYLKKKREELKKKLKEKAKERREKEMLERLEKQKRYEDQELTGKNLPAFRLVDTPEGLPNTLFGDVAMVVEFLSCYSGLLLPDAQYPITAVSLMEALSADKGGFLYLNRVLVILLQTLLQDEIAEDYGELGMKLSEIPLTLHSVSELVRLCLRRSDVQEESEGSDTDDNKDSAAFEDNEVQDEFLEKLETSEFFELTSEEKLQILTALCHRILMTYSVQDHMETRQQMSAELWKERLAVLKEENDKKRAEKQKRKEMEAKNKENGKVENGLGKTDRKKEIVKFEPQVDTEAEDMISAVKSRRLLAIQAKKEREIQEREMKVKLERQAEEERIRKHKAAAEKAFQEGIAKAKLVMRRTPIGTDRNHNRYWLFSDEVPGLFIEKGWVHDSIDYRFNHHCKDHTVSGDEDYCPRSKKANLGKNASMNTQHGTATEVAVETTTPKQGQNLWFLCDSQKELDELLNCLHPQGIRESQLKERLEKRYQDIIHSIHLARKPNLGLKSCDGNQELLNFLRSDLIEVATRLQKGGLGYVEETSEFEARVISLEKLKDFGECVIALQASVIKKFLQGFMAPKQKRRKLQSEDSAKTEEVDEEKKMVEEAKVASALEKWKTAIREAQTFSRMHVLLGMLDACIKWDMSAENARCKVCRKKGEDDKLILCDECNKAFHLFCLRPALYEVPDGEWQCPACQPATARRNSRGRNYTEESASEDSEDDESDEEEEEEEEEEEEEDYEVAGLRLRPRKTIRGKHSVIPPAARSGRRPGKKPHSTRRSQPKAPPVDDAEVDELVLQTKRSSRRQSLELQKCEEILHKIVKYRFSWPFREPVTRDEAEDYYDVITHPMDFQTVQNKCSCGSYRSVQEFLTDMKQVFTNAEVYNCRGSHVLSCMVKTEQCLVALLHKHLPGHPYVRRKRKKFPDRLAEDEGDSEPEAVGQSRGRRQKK

[2] = target: protein kinases (human kinome) (Homo sapiens, UniProt P00519)
[3] = target: protein kinases (human kinome) (Homo sapiens, UniProt P49137); settings: experiment wp168
[4] = target: T2, protein kinases (human kinome) (Homo sapiens, UniProt Q9UBE8); settings: experiment wp168
T2 sequence (Q9UBE8 1-527): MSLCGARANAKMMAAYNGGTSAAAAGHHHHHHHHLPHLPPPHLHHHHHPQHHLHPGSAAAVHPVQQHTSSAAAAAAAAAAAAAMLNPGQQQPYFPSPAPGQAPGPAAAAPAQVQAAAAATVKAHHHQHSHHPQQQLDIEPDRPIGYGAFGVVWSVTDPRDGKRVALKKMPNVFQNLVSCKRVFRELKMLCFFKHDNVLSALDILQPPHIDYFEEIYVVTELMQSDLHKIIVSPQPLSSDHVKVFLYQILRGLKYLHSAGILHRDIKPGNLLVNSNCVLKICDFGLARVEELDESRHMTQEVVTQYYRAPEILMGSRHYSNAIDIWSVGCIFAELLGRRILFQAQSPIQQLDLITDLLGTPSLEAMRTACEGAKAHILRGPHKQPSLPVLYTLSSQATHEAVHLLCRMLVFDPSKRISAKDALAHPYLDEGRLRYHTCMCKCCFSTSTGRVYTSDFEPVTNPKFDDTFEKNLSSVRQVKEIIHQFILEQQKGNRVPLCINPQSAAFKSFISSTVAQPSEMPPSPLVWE

[5] = target: protein kinases (human kinome) (Homo sapiens, UniProt Q9Y2K2)
[6] = target: protein kinases (human kinome) (Homo sapiens, UniProt Q7KZI7); settings: experiment wp117
Sequence of protein kinases (human kinome) (Homo sapiens, UniProt Q7KZI7) (Q7KZI7 whole entry): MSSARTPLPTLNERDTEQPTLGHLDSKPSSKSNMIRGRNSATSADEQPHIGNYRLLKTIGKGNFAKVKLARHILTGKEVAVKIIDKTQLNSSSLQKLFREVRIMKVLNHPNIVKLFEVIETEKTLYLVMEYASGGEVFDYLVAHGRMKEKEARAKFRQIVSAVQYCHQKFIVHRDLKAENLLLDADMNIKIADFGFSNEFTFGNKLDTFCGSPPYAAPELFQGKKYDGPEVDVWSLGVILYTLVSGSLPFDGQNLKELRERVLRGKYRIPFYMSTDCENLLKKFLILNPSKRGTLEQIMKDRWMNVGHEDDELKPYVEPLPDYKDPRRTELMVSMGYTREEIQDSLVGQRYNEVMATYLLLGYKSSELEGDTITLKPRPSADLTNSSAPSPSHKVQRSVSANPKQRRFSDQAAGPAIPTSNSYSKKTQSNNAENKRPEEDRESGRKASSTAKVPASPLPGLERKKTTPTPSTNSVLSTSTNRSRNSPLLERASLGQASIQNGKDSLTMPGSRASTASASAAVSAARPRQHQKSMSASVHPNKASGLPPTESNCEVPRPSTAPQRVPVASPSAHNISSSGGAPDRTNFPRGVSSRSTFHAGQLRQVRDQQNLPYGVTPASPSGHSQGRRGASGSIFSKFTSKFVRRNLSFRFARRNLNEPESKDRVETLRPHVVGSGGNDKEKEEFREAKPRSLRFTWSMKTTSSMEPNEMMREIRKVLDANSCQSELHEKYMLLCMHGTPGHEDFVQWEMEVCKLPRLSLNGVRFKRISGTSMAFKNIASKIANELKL

Sequence of protein kinases (human kinome) (Homo sapiens, UniProt P49137) (P49137 whole entry): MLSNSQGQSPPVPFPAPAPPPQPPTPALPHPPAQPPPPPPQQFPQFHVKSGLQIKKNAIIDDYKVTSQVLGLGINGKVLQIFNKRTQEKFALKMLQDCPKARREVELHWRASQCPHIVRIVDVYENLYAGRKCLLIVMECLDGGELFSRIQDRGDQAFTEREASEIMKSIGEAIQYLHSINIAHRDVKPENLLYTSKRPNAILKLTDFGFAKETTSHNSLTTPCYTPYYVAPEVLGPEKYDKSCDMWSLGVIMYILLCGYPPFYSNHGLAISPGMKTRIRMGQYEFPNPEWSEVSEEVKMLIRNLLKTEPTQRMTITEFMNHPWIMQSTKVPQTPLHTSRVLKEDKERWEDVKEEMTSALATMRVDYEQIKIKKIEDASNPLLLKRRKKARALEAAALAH
Sequence of protein kinases (human kinome) (Homo sapiens, UniProt Q9Y2K2) (Q9Y2K2 whole entry): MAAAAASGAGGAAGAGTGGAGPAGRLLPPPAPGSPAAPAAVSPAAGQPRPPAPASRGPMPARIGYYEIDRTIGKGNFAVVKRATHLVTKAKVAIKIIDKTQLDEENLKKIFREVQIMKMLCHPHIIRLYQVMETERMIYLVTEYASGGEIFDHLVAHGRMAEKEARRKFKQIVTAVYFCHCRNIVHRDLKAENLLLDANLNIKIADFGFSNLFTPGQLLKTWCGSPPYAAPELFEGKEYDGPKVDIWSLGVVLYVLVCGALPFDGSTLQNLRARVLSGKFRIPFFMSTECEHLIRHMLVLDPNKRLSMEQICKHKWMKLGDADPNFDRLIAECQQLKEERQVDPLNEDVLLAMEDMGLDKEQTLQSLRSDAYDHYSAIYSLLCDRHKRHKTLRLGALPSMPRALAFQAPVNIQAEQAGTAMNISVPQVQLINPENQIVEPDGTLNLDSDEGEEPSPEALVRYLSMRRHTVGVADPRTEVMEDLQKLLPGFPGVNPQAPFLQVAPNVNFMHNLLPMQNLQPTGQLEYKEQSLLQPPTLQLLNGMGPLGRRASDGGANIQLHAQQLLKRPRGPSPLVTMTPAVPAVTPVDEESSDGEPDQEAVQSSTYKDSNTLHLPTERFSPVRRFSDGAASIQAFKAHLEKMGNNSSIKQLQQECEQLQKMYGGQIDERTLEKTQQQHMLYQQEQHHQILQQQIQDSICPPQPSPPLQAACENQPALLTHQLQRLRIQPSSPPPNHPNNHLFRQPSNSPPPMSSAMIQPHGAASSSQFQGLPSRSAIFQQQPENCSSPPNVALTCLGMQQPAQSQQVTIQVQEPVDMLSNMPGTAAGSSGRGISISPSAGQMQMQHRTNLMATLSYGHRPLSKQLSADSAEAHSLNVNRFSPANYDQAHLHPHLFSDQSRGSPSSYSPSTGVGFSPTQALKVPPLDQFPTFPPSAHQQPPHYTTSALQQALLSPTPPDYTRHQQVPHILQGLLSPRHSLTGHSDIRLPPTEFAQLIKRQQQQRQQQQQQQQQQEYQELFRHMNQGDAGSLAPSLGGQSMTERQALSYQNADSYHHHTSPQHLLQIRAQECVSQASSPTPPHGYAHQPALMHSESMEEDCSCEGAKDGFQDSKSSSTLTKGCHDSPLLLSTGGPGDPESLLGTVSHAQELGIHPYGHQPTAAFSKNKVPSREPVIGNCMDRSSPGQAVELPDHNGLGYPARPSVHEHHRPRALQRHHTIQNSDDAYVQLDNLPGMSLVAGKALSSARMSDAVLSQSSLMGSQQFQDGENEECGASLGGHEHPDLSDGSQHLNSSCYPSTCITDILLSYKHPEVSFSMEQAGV
Sequence of protein kinases (human kinome) (Homo sapiens, UniProt P00519) (P00519 whole entry): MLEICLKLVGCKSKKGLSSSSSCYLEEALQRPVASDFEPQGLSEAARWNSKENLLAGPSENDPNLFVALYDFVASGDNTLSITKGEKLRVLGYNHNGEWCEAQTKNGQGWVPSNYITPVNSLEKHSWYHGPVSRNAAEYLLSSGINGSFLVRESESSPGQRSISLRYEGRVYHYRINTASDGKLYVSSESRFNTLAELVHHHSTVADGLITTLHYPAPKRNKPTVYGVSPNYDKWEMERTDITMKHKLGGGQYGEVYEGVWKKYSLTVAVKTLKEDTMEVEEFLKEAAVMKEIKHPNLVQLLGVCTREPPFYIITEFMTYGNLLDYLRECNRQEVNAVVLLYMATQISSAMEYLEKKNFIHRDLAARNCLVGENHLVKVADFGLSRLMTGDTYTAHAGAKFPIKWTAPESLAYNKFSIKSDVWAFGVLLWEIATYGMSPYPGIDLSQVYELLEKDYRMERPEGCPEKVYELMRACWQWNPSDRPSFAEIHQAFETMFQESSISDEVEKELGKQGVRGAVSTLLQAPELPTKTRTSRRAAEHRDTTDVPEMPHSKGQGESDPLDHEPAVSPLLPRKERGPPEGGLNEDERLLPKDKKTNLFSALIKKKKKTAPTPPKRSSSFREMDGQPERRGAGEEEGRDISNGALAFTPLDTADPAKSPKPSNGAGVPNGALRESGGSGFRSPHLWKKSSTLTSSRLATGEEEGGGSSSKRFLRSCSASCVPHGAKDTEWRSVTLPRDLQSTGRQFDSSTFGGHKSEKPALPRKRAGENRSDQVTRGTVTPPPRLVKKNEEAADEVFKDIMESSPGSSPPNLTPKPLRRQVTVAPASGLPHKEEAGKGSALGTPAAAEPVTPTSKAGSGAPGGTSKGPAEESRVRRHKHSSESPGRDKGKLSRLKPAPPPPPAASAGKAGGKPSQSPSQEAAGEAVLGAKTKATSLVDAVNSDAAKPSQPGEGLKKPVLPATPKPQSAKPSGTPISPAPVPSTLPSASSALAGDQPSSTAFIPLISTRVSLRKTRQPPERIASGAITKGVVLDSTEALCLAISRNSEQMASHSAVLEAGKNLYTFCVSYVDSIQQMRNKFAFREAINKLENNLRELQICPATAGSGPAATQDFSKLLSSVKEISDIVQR

Compound: CC(=O)c1c(C)c2cnc(Nc3ccc(N4CCN(CCOCCOCCOCCNC(=O)COc5cccc6c5C(=O)N(C5CCC(=O)NC5=O)C6=O)CC4)cn3)nc2n(C2CCCC2)c1=O (centres unmarked) [BSJ.03.123]
- logFC ([1]; experiment wp084): −0.3532

Compound: CN(C)C(=O)c1cc2cnc(Nc3ccc(N4CCN(CCCCNC(=O)COc5cccc6c5C(=O)N(C5CCC(=O)NC5=O)C6=O)CC4)cn3)nc2n1C1CCCC1 (centres unmarked) [BSJ.04.132]
- logFC ([1]; experiment wp084): −0.3222

Compound: Cc1ccc(NC(=O)c2cccc(C(F)(F)F)c2)cc1N1Cc2cnc(Nc3ccc(N4CCN(CCCCC(=O)N[C@H](C(=O)N5C[C@H](O)C[C@H]5C(=O)N[C@@H](C)c5ccc(-c6scnc6C)cc5)C(C)(C)C)CC4)nc3)nc2N(C)C1=O [DB1113]
- logFC of ABL1 (P00519) ([2]; Experiment wp168): −1.014
- logFC ABL1 (P00519) ([2]; experiment wp168): −1.014
- logFC MAPKAPK2 ([3]; Accession P49137, direction down): −3.201
- logFC MAPKAPK2 ([3]; MAPKAPK2 (P49137)): −3.201
- logFC ([4]; NLK (Q9UBE8), direction down): −0.8556
- logFC ([4]; NLK Q9UBE8): −0.8556
- logFC of SIK3 (Q9Y2K2) ([5]; Experiment wp168): −1.602
- logFC ([5]; SIK3 (Q9Y2K2), experiment wp168): −1.602

Compound: CC(C)(C)c1nc(-c2cccc(NS(=O)(=O)c3c(F)cccc3F)c2F)c(-c2ccnc(NCCOCCNC(=O)CCOCCOCCNc3cccc4c3CN(C3CCC(=O)NC3=O)C4=O)n2)s1 (centres unmarked) [DD.03.107]
- logFC ([1]; experiment wp147, 4 uM): −0.3418

Compound: Cc1ncsc1-c1ccc([C@H](C)NC(=O)[C@@H]2C[C@@H](O)CN2C(=O)[C@@H](NC(=O)CCCCCN2CCN(c3ccc(Nc4ncc5scc(-c6cccc(NS(C)(=O)=O)c6)c5n4)cc3)CC2)C(C)(C)C)cc1 [RSS0680, (2S,4R)-1-((S)-3,3-Dimethyl-2-(6-(4-(4-((7-(3-(methylsulfonamido)phenyl)thieno[3,2-d]pyrimidin-2-yl)amino)phenyl)piperazin-1-yl)hexanamido)butanoyl)-4-hydroxy-N—((S)-1-(4-(4-methylthiazol-5yl)phenyl)ethyl)pyrrolidine-2-carboxamide]
- logFC ([6]; MARK2 (Q7KZI7-1), direction down): −0.4286
- logFC ([6]; MARK2 Q7KZI7-1): −0.4286
- logFC ([1]; experiment wp080): −0.4061
